# In publication PMC9356275, “A quantitative high-throughput screen identifies compounds that lower expression of the SCA2-and ALS-associated gene ATXN2” (The Journal of Biological Chemistry, 2022):
# pIC50: −log10 of the molar value. Read-outs that look alike come from different tables or passages of the source.
# Legend:
# Format in all cases: cell-based, human
# [1] = test system: ATXN2-luc; experiment: MSSR pilot screen: ATXN2-luc luciferase assay (Bright-Glo) in H2 cells, single 10 μM dose; conditions: for SD from mean (ATXN2-luc, Z-score): H2 cells, single dose (title: 10 μM compound), overnight; for ¦Score/1SD¦: absolute score divided by 1SD (0.891 or 0.9)
# [2] = test system: ATXN2-luc; experiment: MSSR hit retest / multiconcentration testing: ATXN2-luc luciferase assay in H2 cells (1 and 10 μM); conditions: for H2&S1 ave luc 1uM: 1 uM compound; for H2&S1 ave luc 10uM: 10 uM compound
# [3] = test system: ATXN2-luc; experiment: MSSR hit retest: ATXN2-luc luciferase assay, average of H2 and S1 cells (1 and 10 uM); set-up: H2&S1 ave luc 1uM / H2&S1 ave luc 10uM: scale not given here; conditions: for activity at 1 µM / activity / activity at 10 µM: Homo sapiens; for activity at 1 µM: read-out: H2&S1 ave luc 1uM; for activity / activity at 10 µM: read-out: H2&S1 ave luc 10uM; for H2&S1 ave luc 10uM / activity at 10 µM: head line r3 10uM; for H2&S1 ave luc 10uM: head line r4 20 uM compound
# Excerpt: (§1) Supplement mmc2.xlsx, sheet "43 annotated compounds"
# [4] = test system: H2 and S1 cells; experiment: Paired MTT viability assay, average of H2 and S1 cells (1 and 10 uM); set-up: H2&S1 ave MTT 1uM / H2&S1 ave MTT 10uM: unit not given here; conditions: for viability at 1 µM / viability at 10 µM: Homo sapiens
# Excerpt: as §1
# [5] = test system: ATXN2-luc; experiment: Secondary assays: ATXN2-luc in S2 and H2 cells, 12 doses, Bright-Glo; conditions: summary data
# Protocol: The values for H2 and S2 were used as replicates to calculate IC50s and to assess cell viability.
# (§2) Compounds were plated at 2× concentrations in phenol red–free DMEM in 25 μl in 384-well plates with each compound dose plated in triplicate. An equal volume of S2, H2, or SC cells (24,000 cells/well) suspended in phenol red–free DMEM with 10% fetal bovine serum and 1× penicillin/streptomycin were added. Cells were grown 24 h and then assayed first by using the CellTiter-Fluor reagent (20 μl) followed by the addition of Bright-Glo (65 μl) luciferase assay, using a multimode plate reader (Beckman; DT880). Values were reported as the mean ± SD with n = 3. IC50s were determined by the Hill coefficient method using an online tool (https://www.aatbio.com/tools/ic50-calculator).
# [6] = test system: CMV-luc; experiment: Secondary assays: CMV-luc in SC cells, Bright-Glo; conditions: minimum CMV-luc signal in SC cells over 12 doses; summary data
# Protocol: as §2
# [7] = test system: ATXN2-luc; experiment: NCATS qHTS (LOPAC pilot, primary and confirmation): ATXN2-luc in S2 cells, 1536-well, Steady-Glo; conditions: LOPAC library screening optimization; for AC50: Homo sapiens
# Protocol: We next performed a pilot screen assay to optimize the 1536-well qHTS using S2 cells. […] Cytotoxicity was determined using a multiplexed viability assay (CellTiter-Fluor, a fluorescence-based viability assay using Gly-Phe-7-amino-4-trifluoromethylcoumarin substrate).
# CellTiter-Fluor was used to determine compound effect on cell viability, and Steady-Glo was used to measure luciferase in a multiplexed assay.
# The primary assay was conducted at the NCATS NIH Chemical Genomics Center laboratory. About 4 μl of S2 cell suspension in phenol red–free DMEM was dispensed into wells of 1536-well assay plates. […] Next, SteadyGlo luciferase substrate detection reagent (3 μl) was added to each well and incubated for an additional 5 min at room temperature. Luminescence was then measured on the ViewLux imager equipped with clear filters using a 2 s exposure. All screening operations were performed on a fully integrated robotic system (Kalypsys) containing one RX-130 and two RX-90 anthropomorphic robotic arms (Stäubli). Vehicle-only plates, with DMSO being pin-transferred to columns 5 to 48, were inserted uniformly at the beginning and the end of each library in order to monitor and record any shifts in assay performance.
# [8] = pilot screen, H2 cells expressing ATXN2-luc, single dose printed as 10 μM compound
# [9] = luciferase assay, average of H2 and S1 cells (both ATXN2-luc), rescreen from plated libraries
# [10] = read-out: H2&S1 ave MTT 1uM, 1 uM compound
# [11] = read-out: H2&S1 ave MTT 10uM, 10 uM compound
# [12] = pilot screen at 10 µM compound, H2 cells expressing ATXN2-luc
# [13] = luciferase, average of H2 and S1 cells expressing ATXN2-luc, rescreen
# [14] = 1 uM compound, average of H2 and S1 cells
# [15] = 1 uM compound, read-out: H2&S1 ave MTT 1uM
# [16] = 10 uM compound, read-out: H2&S1 ave MTT 10uM
Compound,"SD from mean (ATXN2-luc, Z-score) [1] [SD]",SD from mean (pilot screen) ([1]; pilot screen) [SD],"SD from mean (pilot screen) [1, 8]",¦Score/1SD¦ ([1]; pilot screen),activity at 1 µM [3] [%],activity [3] [%],"viability at 1 µM [4, 10] [%]","viability at 10 µM [4, 11] [%]","SD from mean (pilot screen) [1, 12]","H2&S1 ave luc 1uM [2, 13]","H2&S1 ave luc 10uM [2, 13]","activity at 1 µM [3, 14] [%]",activity at 10 µM ([3]; average of H2 and S1 cells) [%],"viability at 1 µM [4, 15] [%]","viability at 10 µM [4, 16] [%]",also measured
COc1cccc(C2(O)CCCCC2CN(C)C)c1 (stereo not drawn) [Tramadol],-3.415,-3.415,-3.415,3.79,107,134,128,113,,,,,,,,"H2&S1 ave luc 1uM [2, 9]: 107; H2&S1 ave luc 10uM [2, 9]: 134"
"Nc1ccc(-c2ccc3ncc4ccc(=O)n(-c5cccc(C(F)(F)F)c5)c4c3c2)cn1 [NCGC00263216-02, torin 2]",,,,,,,,,,,,,,,,"pIC50 ([5]; ATXN2-luc luciferase assays in H2 and S2 cells, 12 doses plus a zero dose, read-out: Mean IC50): 6.59; min ATXN2-luc (%) ([5]; minimum ATXN2-luc signal over 12 doses, H2 and S2 cells): 25.4183%; min SC luc (%) [6]: 128.375%"
C[C@H]1O[C@@H](O[C@H]2CC[C@]3(C=O)[C@H]4CC[C@]5(C)[C@@H](C6=CC(=O)OC6)CC[C@]5(O)[C@@H]4CC[C@]3(O)C2)C[C@H](O)[C@@H]1O [Helveticoside],-2.733,-2.733,-2.733,3.07,118,41,99,37.1,,,,,,,,"AC50 ([7]; logarithm of AC50 (negative values), read-out: Log AC50 (converted)): 3.55 µM; AC50 ([7]; read-out: AC50): 3.55 µM; Efficacy ([7]; curve-fit parameter): -86.9163; Inf Activity ([7]; curve-fit parameter): -84.4727"
C/C1=C2/[N-][C@H]([C@H](CC(N)=O)[C@@]2(C)CCC(=O)NC[C@@H](C)OP(=O)([O-])O[C@H]2[C@@H](O)[C@@H](n3cnc4cc(C)c(C)cc43)O[C@@H]2CO)[C@]2(C)N=C(/C(C)=C3N=C(/C=C4N=C1[C@@H](CCC(N)=O)C\4(C)C)[C@@H](CCC(N)=O)[C@]\3(C)CC(N)=O)[C@@H](CCC(N)=O)[C@]2(C)CC(N)=O.[Co] [COBALAMINE],-5.111,-5.111,,5.68,,,,,-5.111,126,109,,,,,"H2&S1 ave luc 1uM [3, 14]: 126; H2&S1 ave luc 10uM ([3]; average of H2 and S1 cells): 109; H2&S1 ave MTT 1uM ([4]; 1 uM compound): 115.867; H2&S1 ave MTT 10uM ([4]; 10 uM compound): 108.02"
CC[C@H]1CN2CCc3cc(OC)c(OC)cc3[C@@H]2C[C@@H]1C[C@H]1NCCc2cc(O)c(OC)cc21.Cl.Cl.O.O.O.O.O.O.O [Cephaeline dihydrochloride heptahydrate],-4.055,-4.055,,4.55,,,,,-4.055,16,17,,,,,"H2&S1 ave luc 1uM [3, 14]: 16; H2&S1 ave luc 10uM ([3]; average of H2 and S1 cells): 17; H2&S1 ave MTT 1uM ([4]; 1 uM compound): 59.1374; H2&S1 ave MTT 10uM ([4]; 10 uM compound): 62.1025"
C1CCC(N=C(NC23CC4CC(CC(C4)C2)C3)N2CCOCC2)CC1.Cl [U-37883A],-4.965,-4.965,,5.57,,,,,-4.965,94,17,,,,,"H2&S1 ave luc 1uM [3, 14]: 94; H2&S1 ave luc 10uM ([3]; average of H2 and S1 cells): 17; H2&S1 ave MTT 1uM ([4]; 1 uM compound): 105.463; H2&S1 ave MTT 10uM ([4]; 10 uM compound): 56.7572"
CC1=CC(=O)c2ccccc2C1=O [Menadione],-3.434,-3.434,-3.434,3.85,,,,,,,,115,35,153,103,"H2&S1 ave luc 1uM [2, 9]: 115"
CC(=O)O[C@H]1C[C@H](O[C@H]2[C@@H](O)C[C@H](O[C@H]3[C@@H](O)C[C@H](O[C@H]4CC[C@@]5(C)[C@H](CC[C@@H]6[C@@H]5C[C@@H](O)[C@]5(C)[C@@H](C7=CC(=O)OC7)CC[C@]65O)C4)O[C@@H]3C)O[C@@H]2C)O[C@H](C)[C@H]1O[C@@H]1O[C@H](CO)[C@@H](O)[C@H](O)[C@H]1O [LANATOSIDE C],,,,,39,15,35,35.6,,39,15,,,,,
C[C@]12CC[C@H](O)C[C@H]1CC[C@@H]1[C@@H]2C[C@@H](O)[C@]2(C)[C@@H](C3=CC(=O)OC3)CC[C@]12O [Digoxigenin],-3.264,-3.264,-3.264,3.66,,,,,,,,90,22,60.4,31.6,
C[C@@H]1O[C@@H](O[C@H]2CC[C@]3(C=O)[C@H]4CC[C@]5(C)[C@@H](C6=CC(=O)OC6)CC[C@]5(O)[C@@H]4CC[C@]3(O)C2)[C@H](O)[C@H](O)[C@H]1O [CONVALLATOXIN],-3.689,-3.689,,4.10,,,,,-3.689,,,12,11,62.2,70,
CO[C@H]1[C@H](O)[C@H](O[C@H]2CC[C@@]3(C=O)[C@H](CC[C@@H]4[C@@H]3CC[C@]3(C)[C@@H](C5=CC(=O)OC5)CC[C@]43O)C2)O[C@@H](C)[C@@H]1O [PERUVOSIDE],-4.038,-4.038,,4.49,15,12,47.5,60,-4.038,,,,,,,
COC(=O)C1=C(C)NC(C)=C(C(=O)OCCN(C)Cc2ccccc2)C1c1cccc([N+](=O)[O-])c1 (stereo not drawn) [NICARDIPINE],-2.782,-2.782,-2.782,3.12,,,,,,,,112,61,140,87,
